# System: Saccharomyces cerevisiae
# Assay: Inhibition of Saccharomyces cerevisiae alpha-glucosidase at 5 uM using p-nitrophenyl-alpha-D-glucoside as substrate measured for 40 mins by spectrophotometric analysis
row,inhibition [%],Compound
1,47,CC(C)=CCc1c(C)cc2cc3c(c(O)c2c1O)C(=O)C=C(O)C3(CC=C(C)C)CC=C(C)C

# Molecular target: not listed separately
# Assay: Inhibition of Saccharomyces cerevisiae alpha-glucosidase using p-nitrophenyl-alpha-D-glucoside as substrate measured for 40 mins by spectrophotometric analysis
row,Compound,IC50 [µM]
1,Cc1cc(O)c2c3c1[C@H](O)[C@@H]1O[C@]3(OC1(C)C)c1c3c(cc(O)c1C2=O)O[C@@H](C(C)(C)O)C3,117
2,CC(C)=CCc1c(C)cc(O)c2c1[C@@H](O)c1c3c(cc(O)c1C2=O)O[C@@H](C(C)(C)O)C3,207
3,CC(C)=CCc1c(C)cc(O)c2c1C(O)c1c(CC=C(C)C)c(O)cc(O)c1C2=O (stereo not drawn),44.1
4,C[C@@H]1O[C@@H](O[C@@H]2[C@@H](O)[C@H](O)[C@H](O[C@H]3[C@H](O)[C@@H](O)C(O)O[C@@H]3CO)O[C@H]2CO)[C@@H](O)[C@H](O)[C@H]1N[C@H]1C=C(CO)[C@@H](O)[C@H](O)[C@H]1O (stereo partly drawn),120

# Results, then the compound that gave them:
row,IC50 [µM],Compound
1,36.9,CC(C)=CCc1c(C)cc(O)c2c1[C@@H](O)c1c3c(cc(O)c1C2=O)OC(C)(C)[C@@H](O)C3
2,37.7,CC(C)=CCc1c(C)cc(O)c2c(O)c3c(cc12)C(CC=C(C)C)(CC=C(C)C)C(O)=CC3=O [HARUNGANIN]
3,1.2,CC(C)=CCc1c(C)cc2cc3c(c(O)c2c1O)C(=O)C(CC1=C(O)C(CC=C(C)C)(CC=C(C)C)c2cc4cc(C)c(CC=C(C)C)c(O)c4c(O)c2C1=O)=C(O)C3(CC=C(C)C)CC=C(C)C

# — ChEMBL document CHEMBL3779803, “α-Glucosidase Inhibitory Prenylated Anthranols from Harungana madagascariensis” (J Nat Prod, 2016)
